Like-named read-outs stand apart in the source and are kept apart here.
Legend:
Type in all cases: cell-based
NR2F6 = target: T1, NR2F6 (Homo sapiens, UniProt P10588); assay: NR2F6 agonist screening, Firefly signal cmpd/DMSO
T1 construct: expressed in transfected cells; also transient transfection
T1 sequence (P10588 1-404): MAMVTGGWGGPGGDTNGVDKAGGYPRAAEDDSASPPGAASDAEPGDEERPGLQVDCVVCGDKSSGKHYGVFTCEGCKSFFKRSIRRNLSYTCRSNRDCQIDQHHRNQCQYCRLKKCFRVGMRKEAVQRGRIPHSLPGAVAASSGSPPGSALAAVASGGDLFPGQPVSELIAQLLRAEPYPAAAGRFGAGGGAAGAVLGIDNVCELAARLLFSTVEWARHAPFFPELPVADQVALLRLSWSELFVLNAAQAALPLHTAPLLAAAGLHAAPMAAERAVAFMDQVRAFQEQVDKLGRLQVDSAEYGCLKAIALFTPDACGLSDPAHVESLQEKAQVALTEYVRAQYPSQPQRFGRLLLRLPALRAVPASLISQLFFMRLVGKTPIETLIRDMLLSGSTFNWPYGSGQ

ERα [1] = target: T2, ERα (Homo sapiens, UniProt P03372); assay: Counterscreening, Firefly signal with ERα transient transfection (Firefly_ERa)
T2 construct: expressed in transfected cells
T2 sequence (P03372 1-595): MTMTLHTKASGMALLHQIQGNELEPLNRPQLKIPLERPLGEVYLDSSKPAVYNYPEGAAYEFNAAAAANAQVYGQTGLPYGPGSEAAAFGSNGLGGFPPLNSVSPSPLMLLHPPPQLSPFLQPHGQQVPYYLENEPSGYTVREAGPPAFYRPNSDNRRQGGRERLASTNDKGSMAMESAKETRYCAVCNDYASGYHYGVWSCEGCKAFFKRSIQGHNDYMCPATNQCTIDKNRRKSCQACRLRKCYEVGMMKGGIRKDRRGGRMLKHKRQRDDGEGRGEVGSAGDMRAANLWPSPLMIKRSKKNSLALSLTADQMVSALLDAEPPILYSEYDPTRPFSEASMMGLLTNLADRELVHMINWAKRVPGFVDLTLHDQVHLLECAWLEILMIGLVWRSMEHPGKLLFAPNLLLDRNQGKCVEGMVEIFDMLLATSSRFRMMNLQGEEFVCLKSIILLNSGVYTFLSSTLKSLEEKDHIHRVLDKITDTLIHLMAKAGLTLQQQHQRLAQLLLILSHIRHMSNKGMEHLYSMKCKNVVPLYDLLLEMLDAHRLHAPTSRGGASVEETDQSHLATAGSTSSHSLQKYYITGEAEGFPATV

ERα [2] = target: T2, ERα; assay: as above; details: 10 uM
Description: The methodology for screening candidate compounds as NR2F6 agonists was as follows: For primary screening, hit criteria was ACT %>DMSO control+5*SD (DSO control) at 10 μM, or any compound with S/B>2. For rescreening, hit criteria was ACT %>DMSO control+3*SD (DSO control) in each replicate at 10 μM. For counterscreening, hit criteria was mean ACT<DMSO control+3*SD (DMSO control) with ERα transient transfection in duplicate at 10 μM.

Renilla_ERa = assay: Renilla signal in ERα counterscreen (Renilla_ERa); details: read-out: Renilla ERalpha transient, cmpd/DMSO (mean)
Renilla = Renilla signal in NR2F6 agonist screening, cmpd/DMSO; details: Renilla, read-out: Renilla F4, cmpd/DMSO (mean)

| SMILES | Firefly F4, cmpd/DMSO (mean) (NR2F6; Table 15, 2 uM) | Firefly F4, cmpd/DMSO (mean) (NR2F6; Table 15, 10 uM) | Firefly F4, cmpd/DMSO (mean) (NR2F6; Table 15, 40 uM) | Firefly ERalpha transient, cmpd/DMSO (mean) (ERα [1]; Table 15, 2 uM) | Firefly ERalpha transient, cmpd/DMSO (mean) (ERα [1]; Table 15, 40 uM) | Firefly ERalpha transient, cmpd/DMSO (mean) (ERα [2]; Table 15) | fold induction at 2 µM (Renilla_ERa; Table 15) | fold induction at 10 µM (Renilla_ERa; Table 15) | fold induction at 40 µM (Renilla_ERa; Table 15) | fold induction at 2 µM (Renilla; Table 15) | fold induction at 10 µM (Renilla; Table 15) | fold induction at 40 µM (Renilla; Table 15) | also measured |
| --- | --- | --- | --- | --- | --- | --- | --- | --- | --- | --- | --- | --- | --- |
| CNc1c(C#N)c(C(F)(F)F)nc2ccc(Oc3ccccc3)cc12 [Compound Z53] | – | – | – | – | – | – | – | – | – | – | – | – | Firefly F4, cmpd/DMSO (mean) (NR2F6; 2 uM, clone F4): 0.8; Firefly F4, cmpd/DMSO (mean) (NR2F6; 10 uM, clone F4): 0.4; Firefly F4, cmpd/DMSO (mean) (NR2F6; 40 uM, clone F4): 0.5; Firefly ERalpha transient, cmpd/DMSO (mean) (ERα [1]; 2 uM): 1.0; Firefly ERalpha transient, cmpd/DMSO (mean) (ERα [1]; 40 uM): 0.4; Firefly ERalpha transient, cmpd/DMSO (mean) (ERα [2]): 0.3; fold induction at 2 µM (Renilla_ERa): 1; fold induction at 10 µM (Renilla_ERa): 0.6; fold induction at 40 µM (Renilla_ERa): 0.5; fold induction at 2 µM (Renilla; clone F4): 0.7; fold induction at 10 µM (Renilla; clone F4): 0.7; fold induction at 40 µM (Renilla; clone F4): 0.6 |
| CCOC(=O)c1cnc2c(C)cc(C)cc2c1NCCCN [Compound Z58] | 0.9 | 4.5 | 0.8 | 1.5 | 0.8 | 6.5 | 1.2 | 1.1 | 0.7 | 1.3 | 1.2 | 0.8 | – |
| CCOC(=O)c1cnc2c(C)cc(C)cc2c1NCCCN1CCCC1 [Compound Z61] | 1.7 | 2.5 | 0.8 | 3.0 | 0.7 | 9.1 | 1.4 | 0.8 | 0.7 | 1.3 | 0.5 | 0.6 | – |
| CCOC(=O)c1cnc2c(C)cc(C)cc2c1N1CCC(N(C)C)CC1 [Compound Z68] | 1.5 | 1.1 | 1.2 | 1.1 | 0.7 | 1.5 | 1.1 | 0.9 | 0.6 | 0.9 | 1 | 0.6 | – |
| CCOC(=O)c1cnc2c(C)cc(C)cc2c1NCCCO [Compound Z70] | 1.1 | 1.0 | 1.0 | 0.9 | 1.5 | 1.1 | 1.1 | 1 | 1.2 | 0.8 | 1.3 | 1.3 | – |
| CCOC(=O)c1cnc2c(C)cc(C)cc2c1NCCCOC [Compound Z71] | 0.8 | 1.0 | 0.8 | 1.4 | 0.4 | 1.0 | 1 | 1 | 0.5 | 1.1 | 0.9 | 0.4 | – |
| CCOC(=O)c1cnc2c(C)cc(C)cc2c1NCc1ccc(Cl)cc1 [Compound Z75] | 0.9 | 1.2 | 0.8 | 1.1 | 0.9 | 1.9 | 1 | 0.9 | 0.7 | 1.1 | 1 | 0.8 | – |
| CCOC(=O)c1cnc2c(C)cc(C)cc2c1N1CCC(C)CC1 [Compound Z76] | 0.8 | 1.8 | 0.8 | 1.3 | 0.7 | 1.9 | 1.1 | 0.8 | 0.4 | 1 | 0.8 | 0.5 | – |
| CCOC(=O)c1cnc2c(C)cc(C)cc2c1N1CCC(O)CC1 [Compound Z78] | 1.4 | 1.5 | 1.6 | 1.5 | 1.1 | 2.4 | 1 | 0.9 | 0.6 | 1.1 | 1 | 0.8 | – |
